Laboratory results: publication PMC5403950, “Mechanism Underlying the Reversal of Drug Resistance in P-Glycoprotein-Expressing Leukemia Cells by Pinoresinol and the Study of a Derivative” (Frontiers in Pharmacology, 2017)
Several values for one entry are separate records, joined by “and”; a condition that tells them apart may be missing. Identical values can stand only once. Entries after “also recorded” stand apart in the source; their conditions may differ. Counter-ions that a name gives are not always drawn. Like-named read-outs stand apart in the source and are kept apart here.

Experiments:
[1] = system: Lucena 1 cells; test: Multidrug resistance reversal assay (MTT) with DOX; format: cell-based, human; conditions: for Effect on DOX toxicity in Lucena 1: compound at highest non-toxic concentration (Table 1)
Protocol: (§1) Briefly, 5 × 10^4 Lucena 1 cells per well were seeded in 96-well plates containing RPMI-1640 medium in the presence of DOX alone or in combination with the tested compounds dissolved in ethanol or acetonitrile as appropriate. DOX was added to reach final concentrations of 0.05–431 μM. The compounds were assayed at the highest non-toxic concentration observed in both cell lines (cytotoxicity ≤ 20%, Cytotoxicity (%) = [1-(Optical density treatment-Optical density DMSO)/(Optical density control-Optical density DMSO)] x 100, determined by MTT proliferation assay (Joray et al., [2015]); maximum concentration tested 40 μg mL^−1). Following the primary screening, compounds 14 and 16 (dissolved in ethanol) were tested at serial dilutions. […] Subsequently, the supernatants were removed and replaced with 100 μL DMSO to solubilize the resulting purple formazan crystals produced from metabolically viable cells. Absorbance was measured with an iMark micro-plate reader (Bio-Rad, USA) at 595 nm.
(§2) The same reversal assay was performed in K562 cells, in order to discard a decrease in the IC50 of DOX due to effects other than P-gp inhibition. The reversal fold (RF) values for the tested compounds, which indicate their capacity to reduce resistance to DOX, were calculated by dividing the IC50 of DOX alone by the IC50 of DOX in the presence of the tested compounds (Xu et al., [2014]).

[2] = system: K562 cells; test: Multidrug resistance reversal assay (MTT) with DOX, sensitive parental line; format: cell-based, human; conditions: for Effect on DOX sensitivity in K562: compound at highest non-toxic concentration (Table 1)
Protocol: as §1, §2

[3] = system: K562 cells; test: Doxorubicin intracellular accumulation assay (flow cytometry), K562; format: cell-based, human; conditions: up to the maximum concentration evaluated
Text: […]. […] Viability controls were included in all the experiments.

[4] = system: Lucena 1 cells; test: Reversal assay (MTT) with VLB; format: cell-based, human
Protocol: Subsequently, the supernatants were removed and replaced with 100 μL DMSO to solubilize the resulting purple formazan crystals produced from metabolically viable cells.
The same reversal assay was performed in K562 cells, in order to discard a decrease in the IC50 of DOX due to effects other than P-gp inhibition.

[5] = system: K562 cells; test: Reversal assay (MTT) with VLB, sensitive parental line; format: cell-based, human
[6] = system: K562 cells; test: Doxorubicin efflux assay (flow cytometry), K562; format: cell-based, human; conditions: 14 at 112 μM, verapamil 30 μM
Protocol: Cells were then washed with ice-cold PBS and the intracellular DOX-associated MFI of 50,000 individual cells was determined by flow cytometry as previously described.

[7] = system: K562 cells; test: Rhodamine 123 efflux assay (flow cytometry), K562; format: cell-based, human; conditions: 14 at 112 μM
Protocol: Rho 123, a P-gp fluorescent substrate, is frequently employed as an indicator of P-gp activity and it was therefore used in an additional efflux study. […] Subsequently, cells were incubated with 500 ng mL^−1 of Rho 123 for 30 min. […] After washing twice with cold PBS, the amount of Rho 123 remaining in 10,000 individual cells after the efflux period was quantified by FACScan flow cytometry. Excitation was performed with a laser operating at 488 nm and the emitted fluorescence was collected through a 530/30 nm pass filter.

[8] = system: P-gp; test: Surface expression of P-gp (FITC anti-human P-gp, flow cytometry), Lucena 1; format: cell-based; conditions: 14 at 112 μM, 48 h
Protocol: (§3) To determine the effect of 14 on P-gp surface expression, Lucena 1 or K562 cells at a density of 5 × 10^4 cells mL^−1 were incubated in the presence of 14, dissolved in ethanol at 112 μM (maximum non-cytotoxic concentration, in order to ensure the presence of the effect) or 1% ethanol (control) for 24 and 48 h. Then, cells were washed with cold PBS and labeled for 30 min at 4°C in the dark with FITC-conjugated mouse anti-human P-gp antibody, which binds to an external epitope of P-gp, according to the manufacturer's instructions. Finally, cells were washed and suspended with ice-cold PBS and fluorescence intensity was determined in 10,000 individual cells by FACScan flow cytometry. FITC fluorescence was measured at an excitation wavelength of 488 nm and emitted light was collected with a 530/30 nm bandpass filter.

[9] = system: P-gp; test: Surface expression of P-gp (FITC anti-human P-gp, flow cytometry), K562; format: cell-based; conditions: 14 at 112 μM, 24 and 48 h
Protocol: as §3

[10] = target: T1, P-gp (Homo sapiens, UniProt P08183); conditions: Lucena 1; for % of inhibition related to verapamil (DOX accumulation): 112 μM
[11] = target: T1, P-gp; test: P-gp ATPase activity ([…] ATPase assay kit, Sf9 membranes); format: biochemical; parameters: host or cells: Spodoptera frugiperda Sf9 cells (membrane preparation); conditions: for Maximum stimulation of P-gp-ATPase activity: activation assay, at 66.7 μM, relative to maximum activation by verapamil
Protocol: The ATPase reaction was subsequently stopped and the inorganic phosphate (Pi) produced was measured colorimetrically at 630 nm.
All experiments were performed in the absence or presence of 1.2 mM of sodium orthovanadate, an ABC transporter-related ATPase inhibitor, in order to measure the vanadate-sensitive portion of the total ATPase activity. […] Membranes from Sf9 cells expressing defective P-gp were used as controls.

[12] = target: T1, P-gp; test: Doxorubicin efflux assay (flow cytometry); format: cell-based; parameters: Lucena 1 was chosen as a well-characterized resistant cell line in which P-gp overexpression is the exclusive mechanism of acquired resistance; endogenous in cells; host or cells: Lucena 1 (drug-selected, P-gp overexpressing) and parental K562 human CML cells; conditions: Lucena 1
Protocol: […]. […] After washing, cells were incubated for 30 min with 14. […] Cells were then washed with ice-cold PBS and the intracellular DOX-associated MFI of 50,000 individual cells was determined by flow cytometry as previously described.

[13] = target: T1, P-gp; test: Rhodamine 123 efflux assay (flow cytometry); format: cell-based; parameters: Lucena 1 was chosen as a well-characterized resistant cell line in which P-gp overexpression is the exclusive mechanism of acquired resistance; endogenous in cells; host or cells: Lucena 1 (drug-selected, P-gp overexpressing) and parental K562 human CML cells; conditions: Lucena 1; 14 at 112 μM; 30 min efflux
[14] = system: P-gp; parameters: method as in Tamaki et al., 2008; conditions: applied at 50 and 100 μM; ref Tamaki et al., 2008; cited from earlier work
[15] = system: KB-C2 cells overexpressing P-gp; parameters: method as in Nabekura et al., 2008; conditions: ref Nabekura et al., 2008; cited from earlier work
[16] = 14 at 112 μM, verapamil as reference

T1 sequence (P08183 whole entry): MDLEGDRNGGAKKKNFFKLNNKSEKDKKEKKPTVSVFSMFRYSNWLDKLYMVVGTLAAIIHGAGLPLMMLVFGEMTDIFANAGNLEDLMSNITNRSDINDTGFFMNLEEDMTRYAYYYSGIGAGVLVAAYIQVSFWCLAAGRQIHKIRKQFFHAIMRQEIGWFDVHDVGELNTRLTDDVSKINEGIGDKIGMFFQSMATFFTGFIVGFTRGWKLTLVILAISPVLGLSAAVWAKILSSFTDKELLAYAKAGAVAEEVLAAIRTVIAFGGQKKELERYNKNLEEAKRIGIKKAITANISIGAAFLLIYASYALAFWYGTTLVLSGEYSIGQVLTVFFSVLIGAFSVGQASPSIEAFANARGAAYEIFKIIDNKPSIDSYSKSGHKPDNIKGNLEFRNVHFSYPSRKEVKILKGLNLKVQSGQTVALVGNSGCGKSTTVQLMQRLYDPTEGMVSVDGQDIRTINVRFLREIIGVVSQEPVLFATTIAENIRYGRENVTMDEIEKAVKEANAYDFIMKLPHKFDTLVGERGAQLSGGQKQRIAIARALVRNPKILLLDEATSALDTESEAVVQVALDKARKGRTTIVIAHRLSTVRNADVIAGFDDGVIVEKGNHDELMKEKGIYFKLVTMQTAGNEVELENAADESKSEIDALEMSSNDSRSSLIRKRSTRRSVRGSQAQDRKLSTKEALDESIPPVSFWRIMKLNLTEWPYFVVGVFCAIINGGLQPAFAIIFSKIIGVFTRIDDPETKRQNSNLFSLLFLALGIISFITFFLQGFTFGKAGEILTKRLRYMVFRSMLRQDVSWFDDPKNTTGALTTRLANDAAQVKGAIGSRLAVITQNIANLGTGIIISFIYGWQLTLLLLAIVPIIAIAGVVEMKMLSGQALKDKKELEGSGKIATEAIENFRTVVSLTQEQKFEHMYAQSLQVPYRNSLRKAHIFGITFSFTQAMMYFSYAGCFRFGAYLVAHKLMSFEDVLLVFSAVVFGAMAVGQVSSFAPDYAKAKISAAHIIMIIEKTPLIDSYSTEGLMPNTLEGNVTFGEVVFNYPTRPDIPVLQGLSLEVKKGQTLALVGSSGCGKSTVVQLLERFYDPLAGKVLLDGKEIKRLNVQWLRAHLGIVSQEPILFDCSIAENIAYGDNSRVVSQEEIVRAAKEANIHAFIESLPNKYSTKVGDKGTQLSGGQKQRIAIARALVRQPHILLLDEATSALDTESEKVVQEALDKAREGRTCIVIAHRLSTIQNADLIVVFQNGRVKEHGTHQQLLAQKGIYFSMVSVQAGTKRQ
T1 sequence (P08183 whole entry): as above

COc1cccc2c1C(=O)c1c(O)c3c(c(O)c1C2=O)C[C@@](O)(C(=O)CO)C[C@@H]3O[C@H]1C[C@H](N)[C@H](O)[C@H](C)O1 [DOX, Doxorubicin hydrochloride, reference compound]
IC50 ([1]; Homo sapiens, Lucena 1, MTT 48 h, 95% confidence limits in brackets, read-out: IC50 of DOX alone): 40800 nM
Resistance of Lucena 1 to DOX relative to K562 ([1]; ratio of DOX IC50 values): 35 fold
IC50 ([2]; Homo sapiens, K562, MTT 48 h, 95% confidence limits in brackets, read-out: IC50 of DOX alone): 1160 nM

COc1ccc(CCN(C)CCCC(C#N)(c2ccc(OC)c(OC)c2)C(C)C)cc1OC (stereo not drawn) [Verapamil, Verapamil hydrochloride, reference compound]
DOX accumulation in K562 [3]: No such increase in MFI

O=c1cc(-c2ccc(O)cc2)oc2cc(O)cc(O)c12 [Compound 10, apigenin]
Effect on DOX toxicity in Lucena 1 [1]: did not cause any effect in DOX toxicity

O=c1c(O)c(-c2ccc(O)c(O)c2)oc2cc(O)cc(O)c12 [Compound 11, quercetin]
Effect on DOX toxicity in Lucena 1 [1]: decreased DOX sensitivity

O=C1C[C@@H](c2ccc(O)cc2)Oc2cc(O)cc(O)c21 [Compound 8, naringenin]
Effect on DOX toxicity in Lucena 1 [1]: did not cause any effect in DOX toxicity

O=C(/C=C/c1ccccc1)c1ccc(O)cc1O [Compound 6, 2′,4′-dihydroxychalcone]
Effect on DOX sensitivity in K562 [2]: caused a decrease in DOX IC50

(±)-pinoresinol [Compound 14]
Minimum effective concentration (MEC) in the reversal assay (potentiation of DOX toxicity from) ([1]; Lucena 1, DOX): 7 µM
RF Lucena 1 ([1]; compound at 28 μM (serial dilution), DOX): 3.4
Effect on DOX sensitivity in K562 [2]: did not increase DOX sensitivity
Reversal fold (RF) to VLB [4, 16]: 60 and 60.20
Reversal fold (RF) to VLB [5, 16]: 9 and 9.63
DOX accumulation in K562 [3]: No such increase in MFI
Effect on DOX efflux in K562 [6]: Neither 14 nor verapamil showed any significant effect
Rho 123-associated MFI in K562 [7]: did not induce any increase
P-gp expression at the membrane surface vs control [8]: less P-gp at the Lucena 1 cell membrane; also recorded: lower
P-gp presence in the outer membrane [9]: No suppression of P-gp presence
% of inhibition related to verapamil (DOX accumulation) ([10]; 0 h pre-incubation): 60%
% of inhibition related to verapamil (DOX accumulation) ([10]; 0.5 h pre-incubation): 73%
% of inhibition related to verapamil (DOX accumulation) ([10]; 1 h pre-incubation, verapamil 30 μM = maximum inhibition): 79%
% of inhibition related to verapamil (DOX accumulation) ([10]; 48 h pre-incubation): 55%
% inhibition with respect to verapamil (DOX accumulation) ([10]; 14 at 56 μM (MEC)): 80%
Time course of DOX accumulation ([10]; 14 at 112 μM, at 20 min, compared with MFI in K562): fully restored the presence of DOX within Lucena 1 cells
Minimum effective concentration (MEC) in the DOX accumulation assay ([10]; 1 h pre-incubation, 5 μM DOX 1 h): 56 µM
Type of P-gp inhibition (Lineweaver-Burk double reciprocal plot of DOX retention) ([10]; 1 h with 14, then 1 h DOX): competitive inhibitor
Increase in DOX-associated MFI vs ethanol control ([10]; 48 h pre-incubation, 14 at 112 μM, verapamil 30 μM, 5 μM DOX 1 h): 1.4 fold
Increase in DOX accumulation (MFI) vs ethanol control ([10]; no pre-incubation (0 h), 14 at 112 μM, verapamil 30 μM, 5 μM DOX 1 h): 1.3 fold
Maximum stimulation of P-gp-ATPase activity [11]: 29.49 ± 4.55%
Maximum stimulation of P-gp-ATPase activity ([11]; listed as pinoresinol): 29%
Effect on ATPase activity of control membranes ([11]; membranes from Sf9 cells expressing defective P-gp, up to 600 μM): no effect
Increase in DOX-associated MFI (retention) vs control in efflux assay ([12]; 14 at 112 μM, 30 min in DOX-free medium): 1.8 fold
Minimum effective concentration (MEC) in the DOX efflux assay ([12]; 30 min efflux): 56 µM
Enhancement of intracellular Rho 123 intensity in efflux assay [13]: 1.5 fold

CC1(C)C=Cc2c(cc3c(c2O)C(=O)CC(c2ccc(O)cc2O)O3)O1 (stereo not drawn) [Compound 9, dalenin]
Effect on DOX sensitivity in K562 [2]: caused a decrease in DOX IC50

(+)-pinoresinol [14 (+)-pinoresinol]
Intracellular accumulation of calcein-AM [14]: increased the intracellular accumulation of calcein-AM

CC[C@]1(O)C[C@@H]2CN(CCc3c([nH]c4ccccc34)[C@@](C(=O)OC)(c3cc4c(cc3OC)N(C)[C@H]3[C@@](O)(C(=O)OC)[C@H](OC(C)=O)[C@]5(CC)C=CCN6CC[C@]43[C@@H]65)C2)C1 [VLB, vinblastine sulfate, reference compound]
IC50 ([4]; Homo sapiens, VLB alone): 2490 nM
IC50 ([5]; Homo sapiens, VLB alone): 240 nM

(-)-sesamin
Concentration from which accumulation of daunorubicin increased [15]: 50 µM
